Data set [1] relates to cannabinoid receptors. Kind of data set: Mouse tetrad model, antagonistic effect against Win 55212-2. In kind it is in vivo. More on the design: unit not given here. The following applies: 5 mg/kg i.v. prior to Win 55212-2 1.25 mg/kg i.v.; male NMRI mice. The text has this: (§1) Substances with affinity for cannabinoid receptors are known to produce a wide range of pharmacological effects. It is also known that intravenous administration of a substance with affinity for cannabinoid receptors in mice produces analgesia, hypothermia, sedation and catalepsy. Individually, none of these effects can be considered as proof that a tested substance has affinity for cannabinoid-receptors, since all of these effects are common for various classes of centrally active agents. However, substances, which show all of these effects, i.e. substances that are active in this so-called tetrad model are considered to have affinity for the cannabinoid receptors. It has further been shown that cannabinoid receptor antagonists are higly effective in blocking the effects of a cannabinoid agonist in the mouse tetrad model.
(§2) The tetrad model is described, for example, in the publication of A. C. Howlett et al, International Union of Pharmacology XXVII. Classification of Cannabinoid Receptors, Pharmacol Rev 54, 161-202, 2002 and David R. Compton et al., “In-vivo Characterization of a Specific Cannabinoid Receptor Antagonist (SR141716A): Inhibition of Tetrahydrocannbinol-induced Responses and Apparent Agonist Activity”, J. Pharmacol. Exp. Ther. 277, 2, 586-594, 1996. The corresponding parts of the description are hereby incorporated by reference.
(§3) Male NMRI mice with a weight of 20-30 g (Harlan, Barcelona, Spain) are used in all of the following experiments.
(§4) Before testing in the behavioral procedures given below, mice are acclimatized to the experimental setting. Pre-Treatment control values are determined for analgesia hot plate latency (in seconds), rectal temperature, sedation and catalepsy.
(§5) In order to determine the agonistic activty of the substance to be tested, the mice are injected intravenously with the substance to be tested or the vehicle alone. 15 minutes after injection, latency in hot plate analgesia is measured. Rectal temperature, sedation and catalepsy are measured 20 minutes after injection.
In order to determine the antagonistic activity the identical procedure is used as for the determination of the agonistic effects, but with the difference that the substance to be evaluated for its antagonistic activity is injectected 5 minutes before the intravenous injection of 1.25 mg/kg Win-55,212 a known cannabinoid-receptor agonist.
(§6) The hot plate analgesia is determined according to the method described in Woolfe D. et al. “The evaluation of analgesic action of pethidine hydrochloride (Demerol)”, J. Pharmacol. Exp. Ther. 80, 300-307, 1944. The respective description is hereby incorporated by reference and forms part of the present disclosure.
(§7) The mice are placed on a hot plate (Harvard Analgesimeter) at 55±0.5° C. until they show a painful sensation by licking their paws or jumping and the time for these sensations to occur is recorded. This reading is considered the basal value (B). The maximum time limit the mice are allowed to remain on the hot plate in absence of any painful response is 40 seconds in order to prevent skin damage. This period is called the cut-off time (PC).
(§8) Fifteen minuts after the administration of the substance to be tested, the mice are again placed on the hot plate and the afore described procedure is repeated. This period is called the post-treatment reading (PT).
(§9) The degree of analgesia is calculated from the formula: % MPE of Analgesia=(PT−B)/(PC−B)×100 • MPE Maximum possible effect. Determination of Sedation and Ataxia
(§10) Sedation and ataxia is determined according to the method described in Desmet L. K. C. et al. “Anticonvulsive properties of.Cinarizine and Flunarizine in Rats and Mice”, Arzneim. -Forsch. (Frug Res) 25, 9, 1975. The respective description is hereby incorporated by reference and forms part of the present disclosure.
The chosen scoring system is • 0: no ataxia; • 1: doubful; • 2: obvious calmness and quiet; • 3 pronounced ataxia; prior to as well as after treatment. […]

In data set [2] the target is T1, transfected human CB1 receptor (Homo sapiens, UniProt P21554).
T1 construct: purchased Receptor Biology, Inc
T1 sequence (P21554 whole entry): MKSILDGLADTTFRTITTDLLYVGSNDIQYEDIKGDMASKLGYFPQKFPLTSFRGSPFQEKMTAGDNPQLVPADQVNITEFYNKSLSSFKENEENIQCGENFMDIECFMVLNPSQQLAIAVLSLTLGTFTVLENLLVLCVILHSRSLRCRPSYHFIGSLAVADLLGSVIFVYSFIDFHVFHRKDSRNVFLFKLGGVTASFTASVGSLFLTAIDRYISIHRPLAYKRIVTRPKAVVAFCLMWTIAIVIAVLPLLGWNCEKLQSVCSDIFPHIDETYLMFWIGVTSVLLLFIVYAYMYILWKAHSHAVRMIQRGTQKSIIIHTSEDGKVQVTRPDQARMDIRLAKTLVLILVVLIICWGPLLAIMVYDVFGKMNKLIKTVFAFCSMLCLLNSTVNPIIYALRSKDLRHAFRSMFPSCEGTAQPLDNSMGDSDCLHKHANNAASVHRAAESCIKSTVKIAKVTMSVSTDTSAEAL
Kind of data set: In-vitro determination of affinity to CB1 receptor, radioligand [^3H]-CP55940. In kind it is binding. The settings on record: for inhibition at 1 µM: read-out: CB1 Receptor % Inhibition 10^−6 M. On the procedure: (§11) I. In-vitro Determination of Affinity to CB1/CB2-Rezeptors
(§12) The in-vitro determination of the affinity of the inventive substituted azetidine compounds to CB1/CB2-Receptors is carried out as described in the publication of Ruth A. Ross, Heather C. Brockie et al., “Agonist-inverse agonist characterization at CB1 and CB2 cannabinoid receptors of L-759633, L759656 and AM630”, British Journal of Pharmacology, 126, 665-672, (1999). The respective parts of the descriptions are hereby incorporated by reference and form part of the present disclosure. The transfected human CB1 and CB2 receptor are obtained from Receptor Biology, Inc. The radioligand used for both receptors is [^3H]-CP55940.
(§13) The affinity of the inventive substituted azetidine compounds to CB1/CB2 receptors is determined as described above.

The test system of data set [3] is cannabinoid receptors. Kind of data set: Mouse tetrad model, agonistic effect (hot plate, hypothermia, catalepsy, sedation). The format is in vivo. The following applies: 5 mg/kg i.v., male NMRI mice; for Agonistic effect A: Hot-Plate test: 15 minutes after injection; for Agonistic effect B: Hypothermia / Agonistic effect C: Catalepsy / Agonistic effect D: Sedation: 20 minutes after injection. Also noted: key to Agonistic effect A: Hot-Plate test: % MPE = (PT−B)/(PC−B)×100; key to Agonistic effect D: Sedation: % sedation = mean score (0-3)/3×100; Agonistic effect B: Hypothermia: unit not given here.
Text: as §1, §2, §3, §4, §5, §6, §7, §8, §9, §10
The chosen scoring system is • 0: no ataxia; • 1: doubful; • 2: obvious calmness and quiet; • 3 pronounced ataxia; prior to as well as after treatment.
The percentage of sedation is determined according to the formula: % of sedation=arithmetic mean/3×100 Hypothermia: […]

The target in data set [4] is T2, transfected human CB2 receptor (Homo sapiens, UniProt P34972).
T2 construct: purchased Receptor Biology, Inc
T2 sequence (P34972 whole entry): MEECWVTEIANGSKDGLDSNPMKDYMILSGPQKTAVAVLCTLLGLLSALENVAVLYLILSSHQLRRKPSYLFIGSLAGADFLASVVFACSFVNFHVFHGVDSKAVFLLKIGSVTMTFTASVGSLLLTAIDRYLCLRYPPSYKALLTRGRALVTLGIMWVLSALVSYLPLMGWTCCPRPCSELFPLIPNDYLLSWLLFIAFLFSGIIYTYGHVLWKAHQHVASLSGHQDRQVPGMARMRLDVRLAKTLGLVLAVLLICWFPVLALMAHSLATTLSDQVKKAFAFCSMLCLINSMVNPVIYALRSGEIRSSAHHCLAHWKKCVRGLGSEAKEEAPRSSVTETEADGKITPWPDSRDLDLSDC
Kind of data set: In-vitro determination of affinity to CB2 receptor, radioligand [^3H]-CP55940. In kind it is binding. The settings on record: 10^−6 M. On the procedure: as §11, §12, §13

We go through 3 molecules from US20050187208A1 (priority 2004, published 2005).

SMILES strings stand for the structures.

Broadly, the melting point is the temperature, or range, at which the solid turns liquid. A word on the inhibition: it is the percentage by which the read-out fell short of the control. A word on the Ki: it is the equilibrium dissociation constant of an inhibitor or competing ligand from its target.

The molecule `C[C@@H]1[C@@H](NS(=O)(=O)c2ccc(S(C)(=O)=O)cc2)CN1C(c1ccc(Cl)cc1)c1ccc(Cl)cc1` (relative stereo) [Example 14, N-{trans-1-[Bis-(4chloro-phenyl)methyl]-2-methyl-azetidin-3-yl}-4-methylsulfonyl-benzenesulfonamide] gave a melting point of 202 to 204 °C. Besides, in the data set with cannabinoid receptors [1], the “Antagonistic Effect A: Hot-Plate test” value stood at 12, the “Antagonistic Effect B: Hypothermia” value was determined as 71, the “Antagonistic Effect C: Catalepsy” value is 14 and the “Antagonistic Effect D: Sedation” value is reported as 9. For the same molecule, in data set [2], the inhibition at 1 µM turned out to be 82%. In the data set on cannabinoid receptors [3], the “Agonistic effect A: Hot-Plate test” value turned out to be 16, the “Agonistic effect B: Hypothermia” value was found to be 0, the “Agonistic effect C: Catalepsy” value came out at 0 and the “Agonistic effect D: Sedation” value stood at 0.
As to `C[C@H]1[C@H](NS(=O)(=O)c2ccc(F)cc2)CN1C(c1ccc(Cl)cc1)c1ccc(Cl)cc1` [Example 5, (2S, 3R)-N-{1-[Bis-(4-chlorophenyl)methyl]-2-methylazetidin-3-yl}-4-fluoro-benzene sulfonamide], the melting point lay within 154 to 157 °C. Further, in the data set with cannabinoid receptors [1], the “Antagonistic Effect A: Hot-Plate test” value was determined as 77, the “Antagonistic Effect B: Hypothermia” value worked out at 100, the “Antagonistic Effect C: Catalepsy” value stood at 71 and the “Antagonistic Effect D: Sedation” value is 57. Also, affinity in data set [2] (radioligand [^3H]-CP55940) was put at a Ki of 264 nM. For the same molecule, in data set [2], the inhibition at 1 µM stood at 59%. Also, the inhibition at 1 µM in data set [4] was 4.6%. Besides, in the data set with cannabinoid receptors [3], the “Agonistic effect A: Hot-Plate test” value stood at 2, the “Agonistic effect B: Hypothermia” value is 0, the “Agonistic effect C: Catalepsy” value came to 0 and the “Agonistic effect D: Sedation” value is given as 0.
In turn, `C[C@H]1[C@H](NS(=O)(=O)c2cccs2)CN1C(c1ccc(Cl)cc1)c1ccc(Cl)cc1` [Example 6, Thiophene-2-sulfonic acid {(2S,3R)-1-[bis-(4-chloro-phenyl)-methyl]-2-methyl-azetidin-3-yl}-amide] came in with a melting point of 72 to 76 °C. Also, in the data set with cannabinoid receptors [1], the “Antagonistic Effect A: Hot-Plate test” value is given as 32, the “Antagonistic Effect B: Hypothermia” value is recorded as 32, the “Antagonistic Effect C: Catalepsy” value is 51 and the “Antagonistic Effect D: Sedation” value was determined as 46. For the same molecule, the inhibition at 1 µM in data set [2] was 66%. Also, the inhibition at 1 µM in data set [4] amounted to 13.5%. In the data set on cannabinoid receptors [3], the “Agonistic effect A: Hot-Plate test” value turned out to be 0, the “Agonistic effect B: Hypothermia” value is 0, the “Agonistic effect C: Catalepsy” value worked out at 0 and the “Agonistic effect D: Sedation” value turned out to be 0.
